According to patent US12171230B2, “Herbicidal compositions” (Bayer Aktiengesellschaft, priority 2018, dated 2024):
Where “and” joins values, the source holds several entries; their conditions need not be identical. Equal entries are not always repeated. Where two headings read alike, the source gives them in different places.

What was measured:
Assay type in all cases: in vivo
Lamium purpureum = assay: Post-emergence herbicidal action against Lamium purpureum
Summary of the method: (§1)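 Pot-grown plants, three weeks old at the three-leaf stage, received foliar sprays of various dosages. Visual assessment relative to untreated plants followed 3 to 4 weeks later.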

Kochia scoparia = assay: Post-emergence herbicidal action against Kochia scoparia; conditions: 1.7 g of a.i./ha
Text: (§2) The following abbreviations are used in the description and the tables that follow: • g of a.i./ha=grams of active substance (active ingredient) (=100% active compound) per hectare; • The sum total of the effects of the individual applications is reported under E^A; • expected values according to Colby are each reported under E^C.
(§3) The rating period is reported in days after application (DAT).

[1] = system: Lolium rigidum (resistant biotype); assay: Post-emergence herbicidal action against Lolium rigidum (resistant biotype)
Summary of the method: (§4)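 Dose unit: g a.i./ha (100% active). Scoring in days after application (DAT). E^A = sum of single-application effects; E^C = Colby expected value.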

Setaria viridis = assay: Post-emergence herbicidal action against Setaria viridis; conditions: 1.7 g of a.i./ha
Summary of the method: as §1

Amaranthus palmeri = assay: Post-emergence herbicidal action against Amaranthus palmeri; conditions: for Herbicidal action: 16 DAT; for pest or weed control at […] / pest or weed control at 5 g/ha / pest or weed control at 15 g/ha: Amaranthus palmeri, post-emergence, 504 h; for pest or weed control at […]: 1.7 g of a.i./ha; for pest or weed control at 5 g/ha: 5 g of a.i./ha; for pest or weed control at 15 g/ha: 15 g of a.i./ha
Summary of the method: as §1

Viola tricolor = assay: Post-emergence herbicidal action against Viola tricolor
Summary of the method: as §4

Veronica hederifolia = assay: Post-emergence herbicidal action against Veronica hederifolia
Text: as §2, §3

Matricaria inodora = assay: Post-emergence herbicidal action against Matricaria inodora; conditions: for Herbicidal action in [%] 28 DAT against Matricaria inodora: post-emergence
[2] = block with (B1.14) Tembotrione, read-out: Herbicidal action 21 DAT [%] against Amaranthus palmeri
[3] = block with (B1.7) Mesotrione, read-out: Herbicidal action 21 DAT [%] against Amaranthus palmeri
[4] = read-out: Herbicidal action 21 DAT [%] against Amaranthus palmeri

## C=C[C@]1(C(=O)N[C@H]2CO[C@@H](C(=O)OC)C2)CC(c2cc(F)cc(F)c2)=NO1 (relative stereo) [Compound A3, methyl rel-(2R,4R)-4-[[(5S)-3-(3,5-difluorophenyl)-5-vinyl-4H-isoxazole-5-carbonyl]amino]tetrahydrofuran-2-carboxylate]
Lamium purpureum; 1 g of a.i./ha
  Herbicidal action 14 DAT against Lamium purpureum L.: 65%
  Herbicidal action 28 DAT against Lamium purpureum L.: 25%
  Herbicidal action in [%] 14 DAT against Lamium purpureum L.: 65%
  Herbicidal action in [%] 28 DAT against Lamium purpureum L.: 25%
Lamium purpureum; 4 g of a.i./ha
  Herbicidal action in [%] 28 DAT against Lamium purpureum L.: 40%
Lamium purpureum; 14 DAT, 1 g of a.i./ha
  Herbicidal action against Lamium purpureum L.: 65%
Lamium purpureum; 28 DAT, 1 g of a.i./ha
  Herbicidal action against Lamium purpureum L.: 25%
Lamium purpureum; 28 DAT, 4 g of a.i./ha
  Herbicidal action against Lamium purpureum L.: 40%
Lamium purpureum; 100 g of a.i./ha, post-emergence
  Herbicidal action 32 DAT [%] against Lamium purpureum: 50%
Lamium purpureum; (Z61) post-emergence, g of a.i./ha: 1, 270, 90, 1 + 270, 1 + 90
  Herbicidal action 14 DAT against Lamium purpureum L.: 65%
Kochia scoparia
  Herbicidal action 21 DAT against Kochia scoparia: 30%
[1]; 1 g of a.i./ha
  Herbicidal action 14 DAT against Lolium rigidum (resistant biotype): 15% and 30%
  Herbicidal action 28 DAT against Lolium rigidum (resistant biotype): 0%
  Herbicidal action in [%] 14 DAT against Lolium rigidum (resistant biotype): 30%
  Herbicidal action in [%] 28 DAT against Lolium rigidum (resistant biotype): 0%
[1]; 4 g of a.i./ha
  Herbicidal action 14 DAT against Lolium rigidum (resistant biotype): 40% and 60%
  Herbicidal action in [%] 14 DAT against Lolium rigidum (resistant biotype): 60%
  Herbicidal action in [%] 28 DAT against Lolium rigidum (resistant biotype): 40%
[1]; 16 g of a.i./ha
  Herbicidal action 28 DAT against Lolium rigidum (resistant biotype): 80%
  Herbicidal action in [%] 28 DAT against Lolium rigidum (resistant biotype): 80%
[1]; (Z61) post-emergence, g of a.i./ha: 4, 1, 270, 90, 4 + 270, 1 + 90, 1 g of a.i./ha
  Herbicidal action 28 DAT against Lolium rigidum (resistant biotype): 0%
[1]; (Z61) post-emergence, g of a.i./ha: 4, 1, 270, 90, 4 + 270, 1 + 90, 4 g of a.i./ha
  Herbicidal action 28 DAT against Lolium rigidum (resistant biotype): 10%
Setaria viridis
  Herbicidal action 21 DAT against Setaria viridis: 70%
Setaria viridis; post-emergence
  Herbicidal action 21 DAT [%] against Setaria viridis: 70%
Amaranthus palmeri; 50 g a.i./ha
  Herbicidal action: 35%
Amaranthus palmeri; 100 g a.i./ha
  Herbicidal action: 45%
Amaranthus palmeri; [2]
  pest or weed control at […]: 0%
  pest or weed control at 5 g/ha: 10%
  pest or weed control at 15 g/ha: 30%
Amaranthus palmeri; [3]
  pest or weed control at […]: 10%
  pest or weed control at 5 g/ha: 15%
Amaranthus palmeri; block with (B9.10) Saflufenacil, read-out: Herbicidal action 21 DAT [%] against Amaranthus palmeri
  pest or weed control at […]: 0%
Amaranthus palmeri; [4]
  pest or weed control at 5 g/ha: 15%
  pest or weed control at 15 g/ha: 30%
Amaranthus palmeri; 21 DAT, read-out: Herbicidal action 21 DAT [%] against Amaranthus palmeri
  pest or weed control at 5 g/ha: 15%
Amaranthus palmeri; 21 DAT
  pest or weed control at […]: 10%
Viola tricolor; 1 g of a.i./ha
  Herbicidal action 14 DAT against Viola tricolor: 50%
  Herbicidal action 28 DAT against Viola tricolor: 15%
Viola tricolor; 4 g of a.i./ha
  Herbicidal action 28 DAT against Viola tricolor: 30%
Viola tricolor; 16 g of a.i./ha
  Herbicidal action 14 DAT against Viola tricolor: 85%
  Herbicidal action 28 DAT against Viola tricolor: 20%
Viola tricolor; (Z61) post-emergence, g of a.i./ha: 16, 1, 30, 16 + 30, 1 + 30, 1 g of a.i./ha
  Herbicidal action 28 DAT against Viola tricolor: 15%
Viola tricolor; (Z61) post-emergence, g of a.i./ha: 16, 1, 30, 16 + 30, 1 + 30, 16 g of a.i./ha
  Herbicidal action 28 DAT against Viola tricolor: 20%
Veronica hederifolia; 1 g of a.i./ha
  Herbicidal action in [%] 14 DAT against Veronica hederifolia: 10%
Veronica hederifolia; 4 g of a.i./ha
  Herbicidal action in [%] 14 DAT against Veronica hederifolia: 30%
Veronica hederifolia; 16 g of a.i./ha
  Herbicidal action 14 DAT against Veronica hederifolia: 40%
Veronica hederifolia; g of a.i./ha: 16, 270, 16 + 270
  Herbicidal action 14 DAT against Veronica hederifolia: 40%
Matricaria inodora; 1 g of a.i./ha
  Herbicidal action 14 DAT against Matricaria inodora: 0%
  Herbicidal action 28 DAT against Matricaria inodora: 0%
  Herbicidal action in [%] 28 DAT against Matricaria inodora: 0%
Matricaria inodora; 4 g of a.i./ha
  Herbicidal action 14 DAT against Matricaria inodora: 30%
  Herbicidal action 28 DAT against Matricaria inodora: 30%
  Herbicidal action in [%] 14 DAT against Matricaria inodora: 20%
  Herbicidal action in [%] 28 DAT against Matricaria inodora: 0%
Matricaria inodora; 14 DAT, 1 g a.i./ha
  Herbicidal action: 0%
Matricaria inodora; 14 DAT, 4 g of a.i./ha
  Herbicidal action against Matricaria inodora: 20%
Matricaria inodora; 14 DAT, 16 g of a.i./ha
  Herbicidal action against Matricaria inodora: 20%
Matricaria inodora; 16 g of a.i./ha
  Herbicidal action 14 DAT against Matricaria inodora: 20%
  Herbicidal action 28 DAT against Matricaria inodora: 15%
